From patent publication US7199129B2, “Derivatives of morphine-like opioid compounds” (Monash University, priority 2001, dated 2007)
Several values for one entry are separate records, joined by “and”; a condition that tells them apart may be missing. Identical values can stand only once. Entries after “also recorded” stand apart in the source; their conditions may differ.

Assays:
ICR-derived mice = test: Phenylquinone-induced writhing assay in mice, IP and oral (Example 17); assay type: in vivo; conditions: for % Inhibition / Number of Writhings Average / Number of Writhings Individual: Table 2; for Number of Writhings Individual: individual mice; for Died (mortality, animals of group of 3): within 30 minutes after administration
Experimental: Further testing on compound KRS-5–150 was carried out under contract by MDS Pharma Services—Taiwan Ltd. The study was designed to evaluate the effects of the compound as an analgesic in the phenylquinone-induced writhing assay, which was described in the previous example, and in the radiant heat-induced tail-flick response assay in mice (D'Amour et al., 1941).
For the phenylquinone writhing test, groups of three male or female ICR-derived mice weighing 22±2 g were used. For the phenylquinone writhing test, KRS-5-150 at doses of 1, 2, 4, 8, 16, 32, 64 and 128 mg/kg in either 2% Tween 80/0.9% NaCl or in 2% Tween 80 was used for intraperitoneal administration, or at doses of 1, 2, 4, 8, 16, 32 or 64 mg/kg in the same vehicles for oral administration. Control animals received vehicle alone. […] A reduction in the number of writhes by 50% or more (≧50%) relative to the vehicle-treated group indicated possible analgesic activity.

human κ-opiate receptor = biological target: T1, human κ-opiate receptor (Homo sapiens, UniProt P41145); test: In vitro opiate receptor radioligand binding assay, κ; conditions: test compound 10 μM
T1 construct: purchased MDS Pharma Services 260210
T1 sequence (P41145 whole entry): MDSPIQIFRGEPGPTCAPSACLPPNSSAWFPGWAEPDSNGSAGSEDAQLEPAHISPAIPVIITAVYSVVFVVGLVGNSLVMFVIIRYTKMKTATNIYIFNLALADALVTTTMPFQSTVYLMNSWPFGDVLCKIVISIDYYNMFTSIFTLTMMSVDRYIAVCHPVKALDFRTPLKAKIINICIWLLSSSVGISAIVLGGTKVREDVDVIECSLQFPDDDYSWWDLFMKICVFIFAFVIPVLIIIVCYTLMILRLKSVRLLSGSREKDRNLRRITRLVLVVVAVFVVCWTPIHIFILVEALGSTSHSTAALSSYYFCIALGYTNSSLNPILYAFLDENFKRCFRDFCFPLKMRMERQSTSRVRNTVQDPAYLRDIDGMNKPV
Experimental: (§1) To characterise the target specificity of the compounds, KRS-5-150 and KRS-6-26 were tested at a concentration of 10 μM for their ability to inhibit the binding of a radioligand to human δ-, κ-, or μ-opiate receptors in vitro using commercially available assays (MDS Pharma Services; assay catalogue numbers 260110, 260210 and 260410 respectively).
(§2) Percentage inhibition of radioligand binding to human opioid receptors in vitro by test compounds (10 μM)

ICR mice [1] = test: Radiant heat-induced tail-flick response assay in mice; assay type: in vivo; conditions: IP; for % Inhibition (prolongation of tail-flick response time): 30 minutes; for Response Time (Seconds) 30 Mins., Average / Response Time (Seconds) 30 Mins.: 30 minutes after administration; for Response Time (Seconds) 30 Mins. / Response Time (Seconds) 0 Time: individual mice; for Response Time (Seconds) 30 Mins.: cut-off 15 seconds; for Response Time (Seconds) 0 Time / Response Time (Seconds) 0 Time, Average: pre-treatment (0 minutes)
Experimental: For the tail-flick assay, groups of four male or female ICR mice weighing 22±2 g were used, and the test compound dissolved in 2% Tween 80/0.9% NaCl was administered intraperitoneally. The compound was administered intraperitoneally at 4, 8, 16 or 32 mg/kg, using 2% Tween 80—0.9% NaCl as the vehicle. Controls received vehicle alone. Morphine-HCl at a dose of 10 mg/kg was used as a positive control. At the pre-treatment point (0 minutes) a focused beam of radiant heat was applied to the middle dorsal surface of the tail to elicit a tail-flick response. […] The time required to elicit a pain response was recorded for each animal at 30 minutes following administration of the test compound. A prolongation of 50% or more ≧50% of the time required to elicit tail-flick response indicated possible analgesic activity.

human δ-opiate receptor = biological target: T2, human δ-opiate receptor (Homo sapiens, UniProt P41143); test: In vitro opiate receptor radioligand binding assay, δ; conditions: test compound 10 μM
T2 construct: purchased MDS Pharma Services 260110
T2 sequence (P41143 whole entry): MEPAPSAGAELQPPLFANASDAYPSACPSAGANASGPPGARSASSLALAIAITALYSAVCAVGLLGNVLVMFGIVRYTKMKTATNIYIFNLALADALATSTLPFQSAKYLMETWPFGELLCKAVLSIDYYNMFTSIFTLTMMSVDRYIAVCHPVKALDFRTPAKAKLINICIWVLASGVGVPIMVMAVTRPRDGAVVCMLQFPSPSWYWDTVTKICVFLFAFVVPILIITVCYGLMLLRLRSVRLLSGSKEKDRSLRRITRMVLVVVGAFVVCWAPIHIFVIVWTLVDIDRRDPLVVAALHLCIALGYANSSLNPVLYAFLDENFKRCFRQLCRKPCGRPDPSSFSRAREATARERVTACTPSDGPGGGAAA
Experimental: as §1, §2

human μ-opiate receptor = biological target: T3, human μ-opiate receptor (Homo sapiens, UniProt P35372); test: In vitro opiate receptor radioligand binding assay, μ; conditions: test compound 10 μM
T3 construct: purchased MDS Pharma Services 260410
T3 sequence (P35372 whole entry): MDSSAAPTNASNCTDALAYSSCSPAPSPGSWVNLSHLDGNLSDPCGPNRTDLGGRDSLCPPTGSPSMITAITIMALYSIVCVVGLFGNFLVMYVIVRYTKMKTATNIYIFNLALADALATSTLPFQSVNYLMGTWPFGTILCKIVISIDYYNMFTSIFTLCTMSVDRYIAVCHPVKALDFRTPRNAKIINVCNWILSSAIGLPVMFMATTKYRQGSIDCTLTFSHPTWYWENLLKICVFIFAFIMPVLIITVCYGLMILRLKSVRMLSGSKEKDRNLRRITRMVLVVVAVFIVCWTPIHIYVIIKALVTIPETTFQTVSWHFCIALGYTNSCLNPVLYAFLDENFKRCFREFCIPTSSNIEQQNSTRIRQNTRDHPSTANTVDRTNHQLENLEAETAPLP
Experimental: as §1, §2

ICR mice [2] = test: Straub tail behaviour (indicator of CNS activity) and observed signs in test animals
Source text: The Straub test is an indicator of CNS activity.
The tail-flick test is thought to involve central nervous system activity, and therefore provides further confirmation of the Straub tail test.

SMILES: Oc1ccc2c3c1O[C@H]1[C@@H](O)C=C[C@H]4[C@@H](C2)N(CCCNC(=Nc2ccccc2)Nc2ccccc2)CC[C@@]341 [KRS-5-150, (5α,6α)-7,8 didehydro-4,5-epoxy-17-(N,N′-bisphenylcarboxamidino-3-aminopropyl)morphinan,3,6-diol]
- % Inhibition (ICR-derived mice; IP, 1 mg/kg): 13%
- Number of Writhings Average (ICR-derived mice; IP, 1 mg/kg): 14
- Number of Writhings Individual (ICR-derived mice; IP, 1 mg/kg): 16 and 13 and 14
- % Inhibition (ICR-derived mice; IP, 2 mg/kg): 31%
- Number of Writhings Average (ICR-derived mice; IP, 2 mg/kg): 11
- Number of Writhings Individual (ICR-derived mice; IP, 2 mg/kg): 13 and 11 and 8
- % Inhibition (ICR-derived mice; IP, 4 mg/kg): (56) %
- Number of Writhings Average (ICR-derived mice; IP, 4 mg/kg): 7
- Number of Writhings Individual (ICR-derived mice; IP, 4 mg/kg): 2 and 11 and 8
- % Inhibition (ICR-derived mice; IP, 8 mg/kg): (88) %
- Number of Writhings Average (ICR-derived mice; IP, 8 mg/kg): 2
- Number of Writhings Individual (ICR-derived mice; IP, 8 mg/kg): 0 and 4 and 2
- % Inhibition (ICR-derived mice; IP, 16 mg/kg): (69) %
- Number of Writhings Average (ICR-derived mice; IP, 16 mg/kg): 5
- Number of Writhings Individual (ICR-derived mice; IP, 16 mg/kg): 4 and 2 and 9
- % Inhibition (ICR-derived mice; IP, 32 mg/kg): (100) %
- Number of Writhings Average (ICR-derived mice; IP, 32 mg/kg): 0
- Number of Writhings Individual (ICR-derived mice; IP, 32 mg/kg): 0
- Number of Writhings Individual (ICR-derived mice; IP, 64 mg/kg): Died and 0 (2×)
- Died (mortality, animals of group of 3) (ICR-derived mice; IP, 64 mg/kg, 64 mg/kg): 1 of 3 and ⅓ and 1/3 Died
- Number of Writhings Individual (ICR-derived mice; IP, 128 mg/kg): 0 and Died (2×)
- Died (mortality, animals of group of 3) (ICR-derived mice; IP, 128 mg/kg, 128 mg/kg): 2 of 3 and ⅔ and 2/3 Died
- analgesic activity in writhing test (ICR-derived mice; given IP): active
- analgesic activity (≧50% reduction in writhes) (ICR-derived mice; intraperitoneal, doses of 4, 8, 16 and 32 mg/kg): Significant activity
- analgesic activity (≧50% reduction in writhes) (ICR-derived mice; oral administration, 1 to 64 mg/kg): not when given orally; also recorded: not after oral administration
- % Inhibition (ICR-derived mice; oral, 1 mg/kg): 0%
- Number of Writhings Average (ICR-derived mice; oral, 1 mg/kg): 16
- Number of Writhings Individual (ICR-derived mice; oral, 1 mg/kg): 25 and 8 and 14
- % Inhibition (ICR-derived mice; oral, 2 mg/kg): 0%
- Number of Writhings Average (ICR-derived mice; oral, 2 mg/kg): 14
- Number of Writhings Individual (ICR-derived mice; oral, 2 mg/kg): 9 and 21 and 11
- % Inhibition (ICR-derived mice; oral, 4 mg/kg): 0%
- Number of Writhings Average (ICR-derived mice; oral, 4 mg/kg): 14
- Number of Writhings Individual (ICR-derived mice; oral, 4 mg/kg): 9 and 15 and 17
- % Inhibition (ICR-derived mice; oral, 8 mg/kg): 0%
- Number of Writhings Average (ICR-derived mice; oral, 8 mg/kg): 15
- Number of Writhings Individual (ICR-derived mice; oral, 8 mg/kg): 17 and 21 and 6
- % Inhibition (ICR-derived mice; oral, 16 mg/kg): 0%
- Number of Writhings Average (ICR-derived mice; oral, 16 mg/kg): 14
- Number of Writhings Individual (ICR-derived mice; oral, 16 mg/kg): 6 and 17 and 18
- % Inhibition (ICR-derived mice; oral, 32 mg/kg): 0%
- Number of Writhings Average (ICR-derived mice; oral, 32 mg/kg): 15
- Number of Writhings Individual (ICR-derived mice; oral, 32 mg/kg): 12 and 14 and 18
- % Inhibition (ICR-derived mice; oral, 64 mg/kg): 14%
- Number of Writhings Average (ICR-derived mice; oral, 64 mg/kg): 12
- Number of Writhings Individual (ICR-derived mice; oral, 64 mg/kg): 12 and 5 and 18
- Percentage inhibition of radioligand binding, κ-opiate receptor (human κ-opiate receptor): 79%
- % Inhibition (prolongation of tail-flick response time) (ICR mice [1]; 4 mg/kg): 5%
- Response Time (Seconds) 30 Mins., Average (ICR mice [1]; 4 mg/kg): 6.6 s
- Response Time (Seconds) 30 Mins. (ICR mice [1]; 4 mg/kg, 4 mg/kg): 6.2 Seconds (2×) and 6.4 Seconds and 7.4 Seconds
- Response Time (Seconds) 0 Time (ICR mice [1]; 4 mg/kg): 6.3 Seconds (2×) and 6.4 Seconds and 6.2 Seconds
- Response Time (Seconds) 0 Time, Average (ICR mice [1]; 4 mg/kg): 6.3 s
- % Inhibition (prolongation of tail-flick response time) (ICR mice [1]; 8 mg/kg): 3%
- Response Time (Seconds) 30 Mins., Average (ICR mice [1]; 8 mg/kg): 6.6 s
- Response Time (Seconds) 30 Mins. (ICR mice [1]; 8 mg/kg, 8 mg/kg): 6.4 s and 6.8 s and 6.5 s and 6.7 s
- Response Time (Seconds) 0 Time (ICR mice [1]; 8 mg/kg): 6.3 Seconds (2×) and 6.5 Seconds and 6.4 Seconds
- Response Time (Seconds) 0 Time, Average (ICR mice [1]; 8 mg/kg): 6.4 s
- % Inhibition (prolongation of tail-flick response time) (ICR mice [1]; 16 mg/kg): 2%
- Response Time (Seconds) 30 Mins., Average (ICR mice [1]; 16 mg/kg): 6.4 s
- Response Time (Seconds) 30 Mins. (ICR mice [1]; 16 mg/kg, 16 mg/kg): 6.3 s and 6.5 s and 6.2 s and 6.4 s
- Response Time (Seconds) 0 Time (ICR mice [1]; 16 mg/kg): 6.2 Seconds (2×) and 6.3 Seconds and 6.4 Seconds
- Response Time (Seconds) 0 Time, Average (ICR mice [1]; 16 mg/kg): 6.3 s
- % Inhibition (prolongation of tail-flick response time) (ICR mice [1]; 32 mg/kg): 19%
- Response Time (Seconds) 30 Mins., Average (ICR mice [1]; 32 mg/kg): 7.6 s
- Response Time (Seconds) 30 Mins. (ICR mice [1]; 32 mg/kg, 32 mg/kg): 6.7 s and 8.7 s and 6.5 s and 8.4 s
- Response Time (Seconds) 0 Time (ICR mice [1]; 32 mg/kg): 6.5 Seconds and 6.3 Seconds (2×) and 6.4 Seconds
- Response Time (Seconds) 0 Time, Average (ICR mice [1]; 32 mg/kg): 6.4 s
- analgesic activity in tail-flick assay (≧50% prolongation) (ICR mice [1]; 4, 8, 16 and 32 mg/kg): none of the four doses used showed significant activity
- Percentage inhibition of radioligand binding, δ-opiate receptor (human δ-opiate receptor): 79%
- Percentage inhibition of radioligand binding, μ-opiate receptor (human μ-opiate receptor): 98%
- test animals exhibiting an increase in respiratory depth (ICR mice [2]; 128 mg/kg IP, Example 17): 3 of 3
- test animals exhibiting slight anoxia (ICR mice [2]; 128 mg/kg IP, Example 17): 3 of 3
- test animals exhibiting slight tremors (ICR mice [2]; 128 mg/kg IP, Example 17): 3 of 3
- Straub tail behaviour (ICR mice [2]; Example 17 (writhing and tail-flick studies)): None of the mice given KRS-5-150 exhibited Straub tail behaviour
- Straub tail behaviour (ICR mice [2]; IP, 2 to 64 mg/kg, Example 16): did not exhibit Straub tail behaviour
